# From patent publication US12342823B2, “Active compound combinations having insecticidal/acaricidal properties” (Bayer Aktiengesellschaft, priority 2018, dated 2025)
# Test system: green peach aphid (Myzus persicae)
# Test: Myzus persicae - spray test on cabbage leaves
# Format: in vivo
# Conditions: mortality, 1600 ppm, spray on infested cabbage leaves
# Method: The expected efficacy of a given combination of two compounds is calculated as follows (see Colby, S.R., “Calculating Synergistic and antagonistic Responses of Herbicide Combinations”, Weeds 15, pp. 20-22, 1967):
# If • X is the efficacy expressed in % mortality of the untreated control for test compound A at a concentration of m ppm or m g/ha, • Y is the efficacy expressed in % mortality of the untreated control for test compound B at a concentration of n ppm or n g/ha, • E is the efficacy expressed in % mortality of the untreated control using the mixture of A and B at m and n ppm respectively m and n g/ha, • then is
# If the observed insecticidal efficacy of the combination is higher than the one calculated as “E”, then the combination of the two compounds is more than additive, i.e., there is a synergistic effect.
# Myzus persicae—Spray Test
# • Solvent: 7 parts by weight of dimethylformamide • Emulsifier: alkylaryl polyglycol ether
# To produce a suitable preparation of active compound, 1 part by weight of active compound is mixed with the stated amount of solvent and is diluted with water, containing an emulsifier concentration of 1000 ppm, to the desired concentration. […]
# After the specified period of time mortality in % is determined. […] The mortality values determined thus are recalculated using the Colby-formula (see sheet 1).
structure (smiles),measurement,value
"C=C(C)[C@H]1CC=C(C)CC1 [(R)-(+)-limonene 97%, (R)-(+)-limonene]",Efficacy in % after 6 days,0%
